Source: ChEMBL document CHEMBL4680331, “Ancistrobrevidines A-C and related naphthylisoquinoline alkaloids with cytotoxic activities against HeLa and pancreatic cancer cells, from the liana Ancistrocladus abbreviatus” (Bioorg Med Chem, 2021)
pIC50: −log10 of the molar value.

Legend:
HeLa = assay: Cytotoxicity against human HeLa cells assessed as decrease in cell viability measured after 72 hrs by WST-8 assay; format: functional, cell-based
PANC-1 [1] = assay: Anti-austerity activity against nutrient-deprived human PANC-1 cells assessed as cell death incubated for 24 hrs by WST-8 assay; format: functional
PANC-1 [2] = assay: Inhibition of colony formation in human PANC-1 cells at 10 uM cultured in nutrient rich DMEM medium measured after 24 hrs by crystal violet staining based assay relative to control; format: functional
PANC-1 [3] = assay: Inhibition of cell migration in human PANC1 cells assessed as open wound area at 40 uM cultured in nutrient rich DMEM medium measured after 24 hrs by quantitative real-time imaging based wound healing assay (reference value: 50%); format: functional; parameters: scale not given: the % may be the effect or the level left
PANC-1 [4] = assay: Inhibition of colony formation in human PANC-1 cells at 20 uM cultured in nutrient rich DMEM medium measured after 24 hrs by crystal violet staining based assay relative to control; format: functional
PANC-1 [5] = assay: Inhibition of colony formation in human PANC-1 cells at 40 uM cultured in nutrient rich DMEM medium measured after 24 hrs by crystal violet staining based assay relative to control; format: functional
PANC-1 [6] = assay: Inhibition of cell migration in human PANC1 cells assessed as open wound area at 20 uM cultured in nutrient rich DMEM medium measured after 48 hrs by quantitative real-time imaging based wound healing assay relative to control; format: functional; parameters: scale not given: the % may be the effect or the level left
PANC-1 [7] = assay: Inhibition of cell migration in human PANC1 cells assessed as open wound area at 20 uM cultured in nutrient rich DMEM medium measured after 24 hrs by quantitative real-time imaging based wound healing assay (reference value: 50%); format: functional; parameters: scale not given: the % may be the effect or the level left
PANC-1 [8] = assay: Cytotoxicity against nutrient-rich DMEM cultured human PANC-1 cells incubated for 24 hrs by WST-8 assay; format: cell-based; settings: panc-1, 24 h
PANC-1 [9] = assay: Inhibition of cell migration in human PANC1 cells assessed as open wound area at 40 uM cultured in nutrient rich DMEM medium measured after 48 hrs by quantitative real-time imaging based wound healing assay relative to control; format: functional; parameters: scale not given: the % may be the effect or the level left
PANC-1 [10] = assay: Induction of morphological changes in human PANC-1 cells cultured in nutrient-deprived medium assessed as cell death at 20 uM measured after 24 hrs by ethidium bromide/acridine orange staining based phase contrast microscopy relative to control; format: functional

## COc1cc(O)c(-c2c(C)cc(OC)c3c(OC)cccc23)c2c1C(C)=N[C@H](C)C2
HeLa
  pIC50: < 4.00
PANC-1 [1]
  PC50: 46.8 µM

## COc1cc(OC)c(-c2ccc(OC)c3c(OC)cc(C)cc23)c2c1C(C)=N[C@@H](C)C2 [ANCISTROEALAINE A]
PANC-1 [1]
  PC50: 18.8 µM

## COc1cccc2c1C(=O)C(=O)C(C)=C2c1c(OC)cc(O)c2c1C[C@H](C)N[C@H]2C
HeLa
  pIC50: 4.07
PANC-1 [1]
  PC50: 28.5 µM

## COc1cc(C[C@H]2C(=O)OC[C@@H]2Cc2ccc(OC)c(OC)c2)ccc1O [ARCTIGENIN]
PANC-1 [1]
  PC50: 0.83 µM

## COc1cc(OC)c(-c2ccc(O)c3c(OC)cc(C)cc23)c2c1C(C)=N[C@@H](C)C2
PANC-1 [2]
  inhibition at 10 µM: 63%
PANC-1 [3]
  Activity: 77%
PANC-1 [4]
  inhibition at 20 µM: 95%
PANC-1 [5]
  inhibition at 40 µM: 100%
PANC-1 [6]
  Activity: 25%
PANC-1 [7]
  Activity: 62%
HeLa
  Activity: Dose-dependent effect
  pIC50: 5.14
PANC-1 [8]
  Activity: Non-Toxic
PANC-1 [9]
  Activity: 70%
PANC-1 [1]
  PC50: 13.3 µM
PANC-1 [10]
  Activity: 100%

## COc1cc(OC)c(-c2c(C)cc(OC)c3c(OC)cccc23)c2c1C(C)=N[C@H](C)C2
HeLa
  pIC50: 4.33
PANC-1 [1]
  PC50: 64.5 µM
